Patent publication US8466139B2, “Formulation” (AstraZeneca AB, priority 2000, dated 2013)

Key:
[1] = Dissipation of 14C labelled benzyl alcohol from the injection site; type: in vivo
Description: This finding is indeed surprising for the following reasons. • 1. […] It is believed that the tissue irritation/inflammation was due to the presence of fulvestrant in the form of solid particles. The release profile appeared to be determined by the extent of inflammation/irritation present at the injection site and this was variable and difficult to control.

uterus = conditions: intact adult rats, cited from earlier work
[2] = Solubility of fulvestrant in different solvents; type: physicochemical; conditions: Water, 25° C.
[3] = tested on: human breast cancer cells; conditions: block of oestradiol-stimulated growth, human breast cancer cells in vitro; cited from earlier work

For `OCc1ccccc1` [^14C labelled benzyl alcohol, benzyl alcohol], the “time to removal from the body after administration” value [1] was no more than 24 h.

In the case of `C[C@]12CC[C@@H]3c4ccc(O)cc4C[C@@H](CCCCCCCCC[S+]([O-])CCCC(F)(F)C(F)(F)F)[C@H]3[C@@H]1CC[C@@H]2O` (stereo partly drawn) [fulvestrant, 7α-[9-(4,4,5,5,5-Pentafluoropentylsulphinyl)nonyl]oestra-1,3-5(10)-triene-3,17β-diol], the “effect on bone density” value (uterus; at dose giving maximum regression of the uterus) is given as “does not adversely affect”, the “regression of the uterus” value (uterus) is given as “maximum regression” and the SOLUBILITY [2] is given as 0.001 mgml^−1. For the same molecule, the “potency and effectiveness compared with tamoxifen” value [3] was “more potent and more effective than tamoxifen”.
